Key:
[1] = system: MDA-MB-231 tumor; experiment: Kinetics of CAR-T cell expansion and tumor uptake in MDA-MB-231 tumor bearing mice; assay type: in vivo
Description: When the tumor sizes averaged at ˜350±60 mm^3 on day 2, up to […] of EC17 at 500 nmol/kg were given on days 2, 9, 16, 23, and 30. For ex-vivo analysis, 3 animals were taken before the next EC17 dose on days 9, 16, 23, and 30 for a total of 4 collections. For comparison, the same EC17 dose was given to 3 CAR-T mice that had ˜4.4× larger tumor sizes on day 2 (˜1555±79 mm^3). For each collection, fresh blood and tumor samples (if available) were analyzed for the presence of human CD3ε+EGFRt+ CAR-T cells by flow cytometry.
The dynamic interplay between EC17 and CAR-T cells in vivo was further analyzed using MDA-MB-231 tumor model, which was previously found to be among the highest FR expressing tumors at 103±15 pmol/mg membrane protein using a ^3H-FA-based radioligand binding assay. […] Seven days following a single EC17 dose (i.e., study day 9), human CD3ε+EGFRt+ CAR-T cells were detected in the blood of mice, with elevated numbers circulating in mice bearing larger tumors (FIGS. 62B-E). […]
For CAR-T cell analysis in the circulation, plasma was removed from a predetermined volume of whole blood collected into tubes containing ethylenediaminetetraacetic acid anticoagulant. […] A minimum of 20,000 propidium iodide negative live cell events were collected on the Gallios flow cytometer and analyzed with the Kaluza software, version 2.1 (Beckman Coulter, Brea, Calif.). […]

[2] = system: MDA-MB-231 tumors; experiment: CAR-T/EC17 therapy, fixed dose and dose de-escalation, in mice bearing MDA-MB-231 tumors; assay type: in vivo; details: 4M5.3-CAR-T 30 million cells, EC17 de-escalation
Text: The effect of EC17 dose de-escalation was investigated on the anti-tumor activity and the toxicity (body weight changes) of CAR-T therapy. Two different anti-fluorescein scFv were used for the CAR constructions (FIG. 1). The first construct of CAR contains the following domains: antiFL(FITC-E2)scFv-IgG4 hinge (CH2 (L235D, N297Q)-CH3)-CD28 TM-4-1BB-CD3z-T2A-EGFRt. The second construct of CAR contains the following domains: antiFL(FITC-4M5.3)scFv-IgG4 hinge (CH2 (L235D, N297Q)-CH3)-CD28 TM-4-1BB-CD3z-T2A-EGFRt. The nucleic acid sequence and amino acid sequence of the CAR of each construct are shown as SEQ ID NOS:1 to 4. Human T cells were isolated, activated and transduced with a lentiviral vector carrying the appropriate CAR gene. CD4+ T cells with the CAR-modification and CD8+ T cells with the CAR-modification were isolated and cultured separately in vitro for about 7 days. CD4+ CAR-T cells and CD8+ CAR-T cells were mixed at a 1:1 ratio before i.v. administration for animal studies.
The second construct 4M5.3-CAR (antiFL(FITC-4M5.3) scFv-IgG4 hinge (CH2 (L235D, N297Q)-CH3)-CD28 TM-4-1BB-CD3z-T2A-EGFRt) was also evaluated. Mice bearing MDA-MB-231 tumors (150-250 mm^3) were used for in vivo studies to evaluate 4M5.3-CAR-T cells. […]

**Q.** Which results are given for `NC1=NC2N=CC(CNc3ccc(C(=O)N[C@@H](CCC(=O)NCCNC(=S)Nc4ccc(-c5c6ccc(=O)cc-6oc6cc(O)ccc56)c(C(=O)O)c4)C(=O)O)cc3)=NC2C(=O)N1` (stereo partly drawn) [EC17, FA-(γ)-ethylenediamine-FITC]?
**A.** onset of tumor response ([1]; EC17 500 nmol/kg weekly, ~4.8 million E2-CAR-T cells): started to respond after the second EC17 dose; body weight loss ([1]; after EC17 administration, especially after the third dose): mild body weight loss; EC17 dose dependence of anti-tumor activity and body weight loss [2]: dose dependent anti-tumor activity and body weight loss
